The values below are quoted from earlier work in patent publication US7056538B2, “Disinfectant solution based on sodium hypochlorite, and process for preparing it” (Aziende Chimiche Riunite Angelini Francesco A.C.R.A.F. …, priority 2001, dated 2006).

The structures appear in SMILES notation.

The conditions of the data set: 25° C.

For `OCl` [hypochlorous acid], the “dissociation constant pKa” value was 7.49.
